Measurements as given in ChEMBL document CHEMBL5244280, “Evodiamine Lowers Blood Lipids by Up-Regulating the PPARγ/ABCG1 Pathway in High-Fat-Diet-Fed Mice” (J Nat Prod, 2021).

Tested on: HEK293
Assay: Agonist activity at human PPAR-beta expressed in HEK293 cells co-transfected with luciferase reporter plasmid assessed as receptor transactivation at 10 nM incubated for 18 hrs by luciferase reporter gene assay relative to control
Type: cell-based
Conditions: filed as agonist

**Q.** How did the fold change (FC) turn out when `Cc1cc(SCc2sc(-c3ccc(C(F)(F)F)c(F)c3)nc2C)ccc1OCC(=O)O` was run?
**A.** 18.3
